“And” between values parts separate entries of the source, which are not always exact repeats. Equal entries are not always repeated.
target: PIK3CG (human) (UniProt P48736); experiment: Inhibition of PIK3CG Kinase Activity
Sequence (P48736 whole entry, looked up): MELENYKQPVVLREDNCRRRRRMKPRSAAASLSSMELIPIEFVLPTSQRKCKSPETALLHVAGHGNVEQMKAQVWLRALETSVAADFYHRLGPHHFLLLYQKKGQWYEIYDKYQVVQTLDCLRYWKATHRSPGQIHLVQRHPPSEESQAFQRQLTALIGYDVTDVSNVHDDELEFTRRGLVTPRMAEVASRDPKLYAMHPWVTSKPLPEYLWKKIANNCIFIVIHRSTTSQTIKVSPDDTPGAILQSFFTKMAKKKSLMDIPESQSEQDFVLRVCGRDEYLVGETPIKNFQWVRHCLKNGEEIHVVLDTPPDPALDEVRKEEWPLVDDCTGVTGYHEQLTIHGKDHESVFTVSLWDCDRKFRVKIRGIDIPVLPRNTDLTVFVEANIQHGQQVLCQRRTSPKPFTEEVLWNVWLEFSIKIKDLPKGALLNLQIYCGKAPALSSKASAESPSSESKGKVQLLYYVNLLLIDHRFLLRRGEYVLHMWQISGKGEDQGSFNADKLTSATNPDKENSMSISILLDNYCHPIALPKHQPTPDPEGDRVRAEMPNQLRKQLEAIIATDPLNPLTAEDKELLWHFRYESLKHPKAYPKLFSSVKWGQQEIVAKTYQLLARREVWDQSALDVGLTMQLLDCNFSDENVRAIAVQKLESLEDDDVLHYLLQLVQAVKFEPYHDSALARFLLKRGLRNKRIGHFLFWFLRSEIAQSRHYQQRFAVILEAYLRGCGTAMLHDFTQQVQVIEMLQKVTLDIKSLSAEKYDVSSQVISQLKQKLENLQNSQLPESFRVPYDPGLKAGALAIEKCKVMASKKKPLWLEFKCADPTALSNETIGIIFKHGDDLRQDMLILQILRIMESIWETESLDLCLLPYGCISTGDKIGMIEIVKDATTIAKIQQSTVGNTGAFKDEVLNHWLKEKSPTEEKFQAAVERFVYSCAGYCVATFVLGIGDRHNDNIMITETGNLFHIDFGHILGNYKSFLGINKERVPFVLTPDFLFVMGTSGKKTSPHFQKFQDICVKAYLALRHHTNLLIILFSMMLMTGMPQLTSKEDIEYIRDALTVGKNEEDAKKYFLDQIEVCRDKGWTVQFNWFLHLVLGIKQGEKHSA

SMILES	Ki
COc1cc(-c2cc(C)c3c(n2)CN(c2cc(C)n(Cc4ccccn4)n2)C3=O)cnc1OC	< 100 nM
COc1cc(-c2cc(C)c3c(n2)CN(c2ccn(CC(F)(F)F)n2)C3=O)cnc1OC	< 100 nM
COc1cc(-c2cc(C)c3c(n2)C(OCC2CC2)N(c2cnn(CC(F)(F)F)c2)C3=O)cnc1OC (configuration not stated)	< 100 nM
CCOc1cncc(-c2cc(C)c3c(n2)[C@H](C)N(c2cnn(CC(F)(F)F)c2)C3=O)c1	< 100 nM
COc1cc(-c2ccc3c(n2)CN(c2ccc(N4CCN(CCO)CC4)nc2)C3=O)cnc1OC	< 100 nM
COc1cc(-c2ccc3c(n2)C(N2CC[C@@H](F)C2)N(c2cnn(CC(F)(F)F)c2)C3=O)cnc1OC (some centres not stated)	< 100 nM
COc1cc(-c2cc(C)c3c(n2)C(C)(C)N(c2cnn(CC(F)F)c2)C3=O)cnc1C	< 100 nM
CCn1cc(N2Cc3nc(-c4cnc(OC)c(OC(C)C)c4)cc(C)c3C2=O)cn1	< 100 nM
COc1cc(-c2cc(C)c3c(n2)CN(c2ccnc(C#N)c2)C3=O)cnc1OC	< 100 nM
COc1cc(-c2ccc3c(n2)CN(c2cnn(CC(O)C(F)(F)F)c2)C3=O)cnc1OC (configuration not stated)	< 100 nM
COc1cncc(-c2cc(C)c3c(n2)C2(CCCO2)N(c2cnn(CC(F)(F)F)c2)C3=O)c1 (configuration not stated)	< 100 nM
COc1cc(-c2ccc3c(n2)C(C)N(c2cc[nH]n2)C3=O)cnc1OC (configuration not stated)	< 100 nM
CCCOc1cc(-c2cc(C)c3c(n2)CN(c2ccn(C4COC4)n2)C3=O)cnc1OC	< 100 nM
Cc1cc(-c2cc(O)cs2)nc2c1C(=O)N(c1cnn(CC(F)(F)F)c1)C2	< 100 nM
COc1cc(-c2ccc3c(n2)CN(c2cnn(Cc4cncn4C)c2)C3=O)cnc1OC	< 100 nM
COc1ncc(-c2cc(C)c3c(n2)CN(c2cc[nH]n2)C3=O)cc1OC(F)F	< 100 nM
Cc1cc(-c2cnc3ccccc3c2)nc2c1C(=O)N(c1cnn(CC(F)(F)F)c1)C2	< 100 nM
Cc1cc(-c2cncc(C(=O)NC(C)C)c2)nc2c1C(=O)N(c1cnn(CC(F)(F)F)c1)C2(C)C	< 100 nM
Cc1cc(-c2cncc(C(=O)N(C)C(C)C)c2)nc2c1C(=O)N(c1cnn(CC(F)(F)F)c1)C2(C)C	< 100 nM
CCOc1ncc(-c2cc(C)c3c(n2)[C@@]2(CCCO2)N(c2ccn(CC)n2)C3=O)cc1OC	100 to 490 nM
COc1cc(-c2ccc3c(n2)[C@H](C)N(c2ccn(CC(C)(C)F)n2)C3=O)cnc1OC	< 100 nM
COc1cc(-c2cc(C)c3c(n2)CN(c2ccc(OCC(F)(F)F)nc2)C3=O)cnc1OC	< 100 nM
CCc1cc(N2Cc3nc(-c4cncc(OC(F)F)c4)ccc3C2=O)nn1C[C@H](C)O	100 to 490 nM
Cc1cc(-c2cncc(OC(F)F)c2)nc2c1C(=O)N(c1cnn(C)c1)C2	< 100 nM

SMILES	Ki
COc1cc(-c2cc(C)c3c(n2)[C@@H](OC)N(c2cnn(CC(F)(F)F)c2)C3=O)cnc1OC	< 100 nM
COc1cccc(-c2cc(C)c3c(n2)CN(c2cnn(C(C)(C)C#N)c2)C3=O)c1	< 100 nM
CCOc1cncc(-c2cc(C)c3c(n2)[C@]2(CCOC2)N(c2cnn(CC(F)(F)F)c2)C3=O)c1	< 100 nM
COc1cc(-c2ccc3c(n2)CN(c2cn(CC(F)(F)F)cn2)C3=O)cnc1OC	< 100 nM
COc1cncc(-c2cc(C)c3c(n2)[C@@H](C)N(c2ccn(C)n2)C3=O)c1	< 100 nM
COCCn1cc(N2Cc3cc(-c4cnc(OC)c(OC)c4)ccc3C2=O)cn1	100 to 490 nM
COc1ncc(-c2cc(C)c3c(n2)C(C)(C)N(c2cnn(CC(F)(F)F)c2)C3=O)cc1C(=O)NCC(C)O (configuration not stated)	< 100 nM
COc1cc(-c2cc(Cl)c3c(c2)CN(c2cnn(CC#N)c2)C3=O)cnc1OC	< 100 nM
Cc1cc(-c2cncc([S+](C)[O-])c2)nc2c1C(=O)N(c1cnn(CC(F)(F)F)c1)C2(C)C (configuration not stated)	100 to 490 nM and < 100 nM
CCOc1cc(-c2cc(C)c3c(n2)C(C)(C)N(c2cnn(CC(F)F)c2)C3=O)cnc1C	< 100 nM
COc1cc(-c2ccc3c(n2)CN(c2ccn(CC(F)F)c(=O)c2)C3=O)cnc1OC	< 100 nM
COc1cc(-c2cc(C)c3c(n2)C(O)N(c2nc(C)cs2)C3=O)cnc1OC (configuration not stated)	< 100 nM
COc1cncc(-c2cc(C)c3c(n2)C2(CC=CC2)N(c2cnn(CC(F)(F)F)c2)C3=O)c1	< 100 nM
CCNC(=O)c1cc(-c2cc(C)c3c(n2)C2(CCOC2)N(c2cnn(CC(F)(F)F)c2)C3=O)cnc1OC (configuration not stated)	< 100 nM
COc1ncc(-c2cc(C)c3c(n2)CN(c2cn[nH]c2)C3=O)cc1OC(C)C	< 100 nM
COc1cncc(-c2cc(C)c3c(n2)CN(c2ccn(C[C@@H](C)F)n2)C3=O)c1	< 100 nM
COc1ncc(-c2cc(C)c3c(n2)CN(c2cnn(C(C)(C)C#N)c2)C3=O)c(OC)n1	< 100 nM
Cc1cc(-c2cncc(CO)c2)nc2c1C(=O)N(c1cc[nH]n1)C2	100 to 490 nM
COc1cc(-c2cc(C)c3c(n2)CN(c2cnn(C(C)(C)C#N)c2)C3=O)cnc1O	100 to 490 nM
COc1cc(-c2ccc3c(n2)CN(c2ccc(N(C)CC(OC)OC)nc2)C3=O)cnc1OC	100 to 490 nM
COc1cc(-c2ccc3c(n2)CN(c2cnn(Cc4cccnc4C)c2)C3=O)cnc1OC	< 100 nM
COc1cncc(-c2cc(C)c3c(n2)C(C)N(c2cn(C)cn2)C3=O)c1 (configuration not stated)	< 100 nM
COc1cc(-c2ccc3c(n2)[C@@H](C)N(c2ccn(C[C@H](C)O)n2)C3=O)cnc1OC	< 100 nM

Reference: the Kinase Knowledgebase extract (Sharma et al. 2016)
